Key:
[1] = molecular target: HIV-1 protease (Human immunodeficiency virus type 1 group M subtype B, UniProt P04585); test: biochemical; conditions: HIV-1 protease; upper line of each compound's entry; read-out: Ki (enzyme)
[2] = test system: HIV-1 (strain IIIB); test: microbe, parasite or virus in culture; type: cell-based; conditions: Human immunodeficiency virus 1, 120 h; MT4 cells infected with HIV-1 strain IIIB, 5 days; lower line of each compound's entry; read-out: IC50 (MT-4 cells)

| Compound | Ki [1] [nM] | IC50 [2] [nM] |
| --- | --- | --- |
| O=C(N[C@@H](Cc1ccccc1)[C@H](O)CN(OC1CCCC1)S(=O)(=O)c1cccc(OCCO)c1)O[C@H]1CO[C@H]2OCC[C@H]21 [Compound 97, (3R,3aS,6aR)hexahydrofuro[2,3-b]furan-3-yl N-[(1S,2R)-1-benzyl-3-((cyclopentyloxy) [3-(2-hydroxyethoxy)phenyl]sulfonylamino)-2-hydroxypropyl]carbamate] | < 1 | ≤ 100 |
| CC(C)ON(C[C@@H](O)[C@H](Cc1ccccc1)NC(=O)O[C@H]1CCOC1)S(=O)(=O)c1cccc(N)c1 [Compound 61, (3S)tetrahydro-3-furanyl N-(1S,2R)-3-[[(3-aminophenyl)sulfonyl](isopropoxy)amino]-1-benzyl-2-hydroxypropylcarbamate] | 1 to 10 | 500 to 1000 |
| CS(=O)(=O)Nc1nc2cc(S(=O)(=O)N(C[C@@H](O)[C@H](Cc3ccccc3)NC(=O)O[C@@H]3CO[C@@H]4OCC[C@@H]43)OC3CCCC3)ccc2[nH]1 [Compound 39, (3S,3aR,6aS)Hexahydrofuro[2,3-b]furan-3-yl-N-((1S,2R)-1-benzyl-3-(cyclopentyloxy)(2-[(methylsulfonyl)amino]benzimidazol-5-ylsulfonyl)amino-2-hydroxypropyl)carbamate] | < 1 | 100 to 500 |
| CCC(CC)ON(C[C@@H](O)[C@H](Cc1ccccc1)NC(=O)O[C@H]1CO[C@H]2OCC[C@H]21)S(=O)(=O)c1ccc(O)cc1 [Example 166, (3R,3aS,6aR)hexahydrofuro[2,3-b]furan-3-yl(1S,2R)-1-benzyl-3-{(1-ethylpropoxy)[(4-hydroxyphenyl)sulfonyl]amino}-2-hydroxypropylcarbamate] | < 1 | ≤ 100 |
| CCC(C)ON(C[C@@H](O)[C@H](Cc1ccccc1)NC(=O)c1cccc(O)c1C)S(=O)(=O)c1ccc(OC)cc1 (stereo partly shown) [Compound 70] | < 1 | > 500 |
